Data published in patent US20240238295A1, “METHOD FOR MODULATING NEUROPATHIES” (priority 2021, published 2024).
Where “and” joins values, the source holds several entries; their conditions need not be identical. Equal values may be shown once.

How the values were obtained:
Type in all cases: in vivo, rhesus monkey (Macaca mulatta)
[1] = system: retinal ganglion cells (RGC); assay: Brn3a immunohistochemistry retinal ganglion cell count, retinal ischemia/reperfusion (I/R) model; settings: for average loss of RGC cells: I/R eyes vs contralateral OS eye, Day 63 after retinal I/R, oral 63 days; for protection on retinal ganglion cells: retinal I/R, 63 days of treatment; as to average loss of RGC cells: test concentration or dose not given here
[2] = system: retinal ischemia/reperfusion (I/R) rhesus monkey model; assay: OCT mean thickness of 9-room retinal EDTRS area, retinal I/R model; settings: change vs before modeling; also: test concentration or dose not given here
[3] = system: retinal ischemia/reperfusion (I/R) rhesus monkey model; assay: OCT Global mean thickness of retinal nerve fiber layer (RNFL), retinal I/R model; settings: change vs before modeling; also: test concentration or dose not given here
[4] = system: rhesus monkeys with spontaneous diabetic peripheral neuropathy; assay: Nerve electromyogram: sensory nerve conduction velocity (SCV) of abnormal nerves, spontaneous DPN model; settings: for Variation value, sensory nerve conduction velocity, Mean ± SD / Administration D58, sensory nerve conduction velocity, Mean ± SD / Baseline value, sensory nerve conduction velocity, Mean ± SD: group mean over all abnormal nerves; for Variation value, sensory nerve conduction velocity, Mean ± SD / Variation value, sensory nerve conduction velocity: D58 minus baseline; for Administration D58, sensory nerve conduction velocity, Mean ± SD / Administration D58, sensory nerve conduction velocity: Day 58 of administration; for Baseline value, sensory nerve conduction velocity, Mean ± SD / Baseline value, sensory nerve conduction velocity: before administration; for Variation value, sensory nerve conduction velocity / Administration D58, sensory nerve conduction velocity / Baseline value, sensory nerve conduction velocity: individual animal; as to Administration D58, sensory nerve conduction velocity, Mean ± SD: test concentration or dose not given here; as to Administration D58, sensory nerve conduction velocity: test concentration or dose not given here; as to Variation value, sensory nerve conduction velocity, Mean ± SD: test concentration or dose not given here; as to Variation value, sensory nerve conduction velocity: test concentration or dose not given here
[5] = system: sural nerve of rhesus monkeys with spontaneous diabetic peripheral neuropathy; assay: Nerve electromyogram: sural sensory nerve conduction velocity, spontaneous DPN model; settings: for Change value, sural sensory nerve conduction velocity, Mean ± SD / D58 of administration, sural sensory nerve conduction velocity, Mean ± SD / Baseline value, sural sensory nerve conduction velocity, Mean ± SD: group mean over abnormal sural nerves; for Change value, sural sensory nerve conduction velocity, Mean ± SD / Change value, sural sensory nerve conduction velocity: D58 minus baseline; for D58 of administration, sural sensory nerve conduction velocity, Mean ± SD / D58 of administration, sural sensory nerve conduction velocity: Day 58 of administration; for Baseline value, sural sensory nerve conduction velocity, Mean ± SD: before administration; for Change value, sural sensory nerve conduction velocity / D58 of administration, sural sensory nerve conduction velocity: individual animal; as to Change value, sural sensory nerve conduction velocity, Mean ± SD: test concentration or dose not given here; as to Change value, sural sensory nerve conduction velocity: test concentration or dose not given here; as to D58 of administration, sural sensory nerve conduction velocity, Mean ± SD: test concentration or dose not given here; as to D58 of administration, sural sensory nerve conduction velocity: test concentration or dose not given here
[6] = OS (non-ischemic contralateral eye), Day 7
[7] = OS (non-ischemic contralateral eye), Day 21
[8] = OS (non-ischemic contralateral eye), Day 35
[9] = OS (non-ischemic contralateral eye), Day 63
[10] = spontaneous DPN, 58 days, P>0.05 vs placebo group

In the case of COc1cc2nc(N3CCN(C(=O)C4COc5ccccc5O4)CC3)nc(N)c2cc1OC (racemic) [DOX, (RS)-2-[4-(2,3-Dihydro-1,4-benzodioxine-2-carbonyl)piperazin-1-yl]-6,7-dimethoxyquinazolin-4-amine], the “average loss of RGC cells” value [1] is reported as 63.9±14.1%, the “protection on retinal ganglion cells” value [1] is reported as “weak protection” and the “Δ mean thickness of the 9-room retinal EDTRS area” value (from here on “Δ mean thickness”) ([2]; OD (IR injury), Day 7) is reported as −26 ± 0 μm. The “Δ mean thickness” value ([2]; OD (IR injury), Day 21) was −48 ± 7 μm, the “Δ mean thickness” value ([2]; OD (IR injury), Day 35) was −54 ± 10 μm and the “Δ mean thickness” value ([2]; OD (IR injury), Day 63) was −58 ± 9 μm. For the same compound, the “Δ mean thickness” value [2, 6] was −5 ± 4 μm, the “Δ mean thickness” value [2, 7] was −3 ± 4 μm and the “Δ mean thickness” value [2, 8] was −3 ± 3 μm. For the same compound, the “Δ mean thickness” value [2, 9] was −3 ± 5 μm, the “Δ Global mean thickness of retinal nerve fiber layer (RNFL)” value (“Δ Global mean thickness” for short) ([3]; OD (I/R injury), Day 35) was −14 ± 4 μm and the “Δ Global mean thickness” value ([3]; OD (I/R injury), Day 63) was −21 ± 7 μm. The “Δ Global mean thickness” value [3, 8] was 1 ± 2 μm and the “Δ Global mean thickness” value [3, 9] was 1 ± 1 μm.
CCCN[C@H]1CCc2nc(N)sc2C1 [PMP, (S)—N6-propyl-4,5,6,7-tetrahydro-1,3-benzothiazole-2,6-diamine] was tested, and the “Variation value, sensory nerve conduction velocity, Mean ± SD” value [4] was 0.4 ± 1.3 m/s, the “Administration D58, sensory nerve conduction velocity, Mean ± SD” value [4] was 39.0 ± 5.1 m/s and the “Baseline value, sensory nerve conduction velocity, Mean ± SD” value [4] was 38.6 ± 4.9 m/s. For the same compound, the “Variation value, sensory nerve conduction velocity” value ([4]; left median nerve (abnormal)) was −1.9 m/s and 0.8 m/s, the “Administration D58, sensory nerve conduction velocity” value ([4]; left median nerve (abnormal)) was 42.1 m/s and 40.0 m/s and the “Baseline value, sensory nerve conduction velocity” value ([4]; left median nerve (abnormal)) was 44.0 m/s and 39.2 m/s. For the same compound, the “Variation value, sensory nerve conduction velocity” value ([4]; left sural nerve (abnormal)) was −0.3 m/s and 1.9 m/s, the “Baseline value, sensory nerve conduction velocity” value ([4]; left sural nerve (abnormal)) was 40.5 m/s and 38.5 m/s and the “Variation value, sensory nerve conduction velocity” value ([4]; right median nerve (abnormal)) was −0.6 m/s. The “Administration D58, sensory nerve conduction velocity” value ([4]; right median nerve (abnormal)) was 25.6 m/s, the “Baseline value, sensory nerve conduction velocity” value ([4]; right median nerve (abnormal)) was 26.2 m/s and the “Variation value, sensory nerve conduction velocity” value ([4]; right sural nerve (abnormal)) was −0.4 m/s and 2.1 m/s and 1.4 m/s. The “Baseline value, sensory nerve conduction velocity” value ([4]; right sural nerve (abnormal)) was 40.0 m/s and 39.0 m/s and 41.2 m/s, the “improvement in abnormal sensory nerve conduction velocity compared with the placebo group” value [4, 10] was “no significant improvement” and the “average loss of RGC cells” value [1] was 60.0%. The “protection on retinal ganglion cells” value [1] was “weak protection”, the “Δ mean thickness” value ([2]; OD (IR injury), Day 7) was −50 ± 14 μm and the “Δ mean thickness” value ([2]; OD (IR injury), Day 21) was −79 ± 15 μm. For the same compound, the “Δ mean thickness” value ([2]; OD (IR injury), Day 35) was −85 ± 14 μm, the “Δ mean thickness” value ([2]; OD (IR injury), Day 63) was −88 ± 18 μm and the “Δ mean thickness” value [2, 6] was −3 ± 5 μm. For the same compound, the “Δ mean thickness” value [2, 7] was −6 ± 3 μm, the “Δ mean thickness” value [2, 8] was −2 ± 4 μm and the “Δ mean thickness” value [2, 9] was 3 ± 3 μm. For the same compound, the “Change value, sural sensory nerve conduction velocity, Mean ± SD” value [5] was 0.9 ± 1.1 m/s, the “D58 of administration, sural sensory nerve conduction velocity, Mean ± SD” value [5] was 40.8 ± 1.0 m/s and the “Baseline value, sural sensory nerve conduction velocity, Mean ± SD” value [5] was 39.8 ± 1.0 m/s. For the same compound, the “Change value, sural sensory nerve conduction velocity” value ([5]; left sural nerve (abnormal)) was −0.3 m/s and 1.9 m/s, the “D58 of administration, sural sensory nerve conduction velocity” value ([5]; left sural nerve (abnormal)) was 40.2 m/s and 40.4 m/s and the “Change value, sural sensory nerve conduction velocity” value ([5]; right sural nerve (abnormal)) was −0.4 m/s and 2.1 m/s and 1.4 m/s. The “D58 of administration, sural sensory nerve conduction velocity” value ([5]; right sural nerve (abnormal)) was 39.6 m/s and 41.1 m/s and 42.6 m/s, the “improvement in abnormal sural sensory nerve conduction velocity compared with the placebo group” value [5, 10] was “no significant improvement” and the “Δ Global mean thickness” value ([3]; OD (I/R injury), Day 35) was −41 ± 8 μm. The “Δ Global mean thickness” value ([3]; OD (I/R injury), Day 63) was −46 ± 3 μm, the “Δ Global mean thickness” value [3, 8] was −2 ± 1 μm and the “Δ Global mean thickness” value [3, 9] was 2 ± 1 μm.
With CC(/C=C1\SC(=S)N(CC(=O)O)C1=O)=C\c1ccccc1 [Epalrestat, epalrestat] the “Variation value, sensory nerve conduction velocity, Mean ± SD” value [4] was 4.2 ± 4.0 m/s, the “Administration D58, sensory nerve conduction velocity, Mean ± SD” value [4] was 43.6 ± 7.3 m/s and the “Baseline value, sensory nerve conduction velocity, Mean ± SD” value [4] was 38.8 ± 4.7 m/s. For the same compound, the “Variation value, sensory nerve conduction velocity” value ([4]; left median nerve (abnormal)) was 1.5 m/s and 8.6 m/s, the “Administration D58, sensory nerve conduction velocity” value ([4]; left median nerve (abnormal)) was 40 m/s and 51.2 m/s and the “Baseline value, sensory nerve conduction velocity” value ([4]; left median nerve (abnormal)) was 38.5 m/s and 42.6 m/s. For the same compound, the “Variation value, sensory nerve conduction velocity” value ([4]; left sural nerve (abnormal)) was −1.1 m/s and 5.6 m/s and 6.1 m/s, the “Baseline value, sensory nerve conduction velocity” value ([4]; left sural nerve (abnormal)) was 40.4 m/s and 39.6 m/s and 35.3 m/s and the “Variation value, sensory nerve conduction velocity” value ([4]; left ulnar nerve (abnormal)) was 8.3 m/s. The “Administration D58, sensory nerve conduction velocity” value ([4]; left ulnar nerve (abnormal)) was 50.7 m/s, the “Baseline value, sensory nerve conduction velocity” value ([4]; left ulnar nerve (abnormal)) was 42.4 m/s and the “Variation value, sensory nerve conduction velocity” value ([4]; right median nerve (abnormal)) was −0.7 m/s and 4.8 m/s. The “Administration D58, sensory nerve conduction velocity” value ([4]; right median nerve (abnormal)) was 25.1 m/s and 48.2 m/s, the “Baseline value, sensory nerve conduction velocity” value ([4]; right median nerve (abnormal)) was 25.8 m/s and 43.4 m/s and the “Variation value, sensory nerve conduction velocity” value ([4]; right sural nerve (abnormal)) was 0.4 m/s and 2.8 m/s and −0.6 m/s and 9.3 m/s. The “Baseline value, sensory nerve conduction velocity” value ([4]; right sural nerve (abnormal)) was 40.9 m/s and 36.8 m/s and 44.4 m/s and 34.6 m/s, the “Variation value, sensory nerve conduction velocity” value ([4]; right ulnar nerve (abnormal)) was 9.2 m/s and the “Administration D58, sensory nerve conduction velocity” value ([4]; right ulnar nerve (abnormal)) was 48.4 m/s. For the same compound, the “Baseline value, sensory nerve conduction velocity” value ([4]; right ulnar nerve (abnormal)) was 39.2 m/s, the “mean increase in SCV of nerves with abnormal conduction velocities vs baseline” value ([4]; spontaneous DPN, administered for 58 days) was 4.2±4.0 m/s and the “Change value, sural sensory nerve conduction velocity, Mean ± SD” value [5] was 3.2 ± 3.9 m/s. The “D58 of administration, sural sensory nerve conduction velocity, Mean ± SD” value [5] was 42.1 ± 2.1 m/s, the “Baseline value, sural sensory nerve conduction velocity, Mean ± SD” value [5] was 38.9 ± 3.2 m/s and the “Change value, sural sensory nerve conduction velocity” value ([5]; left sural nerve (abnormal)) was 6.1 m/s and −1.1 m/s and 5.6 m/s. The “D58 of administration, sural sensory nerve conduction velocity” value ([5]; left sural nerve (abnormal)) was 41.4 m/s and 39.3 m/s and 45.2 m/s, the “Change value, sural sensory nerve conduction velocity” value ([5]; right sural nerve (abnormal)) was 9.3 m/s and 0.4 m/s and 2.8 m/s and −0.6 m/s and the “D58 of administration, sural sensory nerve conduction velocity” value ([5]; right sural nerve (abnormal)) was 43.9 m/s and 41.3 m/s and 39.6 m/s and 43.8 m/s. For the same compound, the “average increase in sensory nerve conduction velocity (SCV) of abnormal sural nerves vs baseline” value ([5]; spontaneous DPN, 58 days of administration) was 3.2±3.9 m/s and the “nerves determined to be effectively improved in conduction velocity (of abnormal sural nerves)” value ([5]; spontaneous DPN, 58 days, effective = return to normal or increase by 2-5 m/s or more) was 4/7.
